Experiment [1] relates to HEK293. Put plainly: optical interference in Abeta FP readout, dose response, artefact control for IDE activator project, biochemical, fluorescence polarization (AID 588442). The experiment is classed as functional, cell-based. The following applies: Homo sapiens. In general terms: In fluorescence polarisation assays a small probe gives low polarisation when free and higher when bound to something large.

Experiment [2] relates to HEK293. The experiment in a line: HEK cell cytotoxicity by LDH release, dose response, cytotoxicity control for IDE activator project, fluorescence, HEK cells (AID 588440).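 Also: cytotoxicity by LDH release measuring loss of membrane integrity.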 The experiment is classed as functional, cell-based. The settings on record: Homo sapiens. On the technique in general: LDH leaks from cells whose membrane has failed.
Experiment [3] deals with T1, Insulin-degrading enzyme (Homo sapiens, UniProt P14735).
T1 sequence (P14735 whole entry): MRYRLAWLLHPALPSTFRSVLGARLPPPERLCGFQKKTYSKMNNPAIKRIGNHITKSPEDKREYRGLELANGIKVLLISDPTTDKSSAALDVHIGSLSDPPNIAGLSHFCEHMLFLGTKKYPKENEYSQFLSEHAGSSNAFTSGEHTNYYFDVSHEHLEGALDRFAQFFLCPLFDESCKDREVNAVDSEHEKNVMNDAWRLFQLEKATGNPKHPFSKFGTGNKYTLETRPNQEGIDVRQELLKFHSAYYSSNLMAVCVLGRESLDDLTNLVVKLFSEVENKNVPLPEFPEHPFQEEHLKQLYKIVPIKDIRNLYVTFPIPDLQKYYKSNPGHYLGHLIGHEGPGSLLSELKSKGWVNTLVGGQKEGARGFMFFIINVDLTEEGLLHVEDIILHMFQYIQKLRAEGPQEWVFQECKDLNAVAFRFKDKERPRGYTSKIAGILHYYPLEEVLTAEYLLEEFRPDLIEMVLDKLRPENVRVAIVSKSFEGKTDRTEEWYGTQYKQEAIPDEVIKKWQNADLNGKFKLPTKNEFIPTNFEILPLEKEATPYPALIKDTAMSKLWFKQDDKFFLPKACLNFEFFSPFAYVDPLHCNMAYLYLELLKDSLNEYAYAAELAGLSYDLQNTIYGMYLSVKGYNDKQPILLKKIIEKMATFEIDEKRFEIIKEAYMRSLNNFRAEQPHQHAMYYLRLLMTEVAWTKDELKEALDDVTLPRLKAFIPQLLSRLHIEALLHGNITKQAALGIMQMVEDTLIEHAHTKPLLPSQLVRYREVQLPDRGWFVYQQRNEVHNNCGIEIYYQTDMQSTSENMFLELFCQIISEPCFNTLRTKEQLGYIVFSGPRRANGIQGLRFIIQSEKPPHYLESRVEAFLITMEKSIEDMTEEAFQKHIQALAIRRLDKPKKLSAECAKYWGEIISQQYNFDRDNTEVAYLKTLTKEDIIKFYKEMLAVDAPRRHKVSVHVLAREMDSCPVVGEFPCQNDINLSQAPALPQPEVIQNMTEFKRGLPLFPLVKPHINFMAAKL
The experiment in a line: activators of endogenous IDE in HEK cells, dose response, cell-based, fluorescence polarization (AID 588439). The experiment is classed as functional.

Experiment [4] has as its target T1, Insulin-degrading enzyme. Put plainly: activators of recombinant IDE enzyme, dose response, counter-screen for IDE activator project, biochemical, fluorescence polarization (AID 588681).
Experiment [5] has as its target T2, High affinity choline transporter 1 (Homo sapiens, UniProt Q9GZV3).
T2 sequence (Q9GZV3 whole entry): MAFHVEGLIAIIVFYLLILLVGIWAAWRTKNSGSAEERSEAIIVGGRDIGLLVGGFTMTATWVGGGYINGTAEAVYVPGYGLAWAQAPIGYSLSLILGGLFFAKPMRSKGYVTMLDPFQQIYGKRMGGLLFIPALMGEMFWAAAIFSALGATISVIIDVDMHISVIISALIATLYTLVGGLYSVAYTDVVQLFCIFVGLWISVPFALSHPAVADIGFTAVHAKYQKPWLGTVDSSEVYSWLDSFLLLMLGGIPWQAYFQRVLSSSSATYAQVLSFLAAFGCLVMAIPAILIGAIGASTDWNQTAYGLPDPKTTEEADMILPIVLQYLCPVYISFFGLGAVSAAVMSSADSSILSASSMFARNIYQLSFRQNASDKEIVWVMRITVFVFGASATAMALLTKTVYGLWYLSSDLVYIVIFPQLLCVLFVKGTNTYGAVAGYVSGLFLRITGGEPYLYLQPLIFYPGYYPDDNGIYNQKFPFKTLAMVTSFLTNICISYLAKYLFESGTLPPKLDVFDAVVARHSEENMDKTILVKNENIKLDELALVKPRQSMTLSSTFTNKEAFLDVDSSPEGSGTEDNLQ
Put plainly: CHT inhibitors, dose response, cell-based, 10-point CRC, membrane potential dye (AID 588401).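 Also: membrane potential dye fluorescence of choline-evoked depolarization via CHT.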 The experiment is classed as functional.

Experiment [6] concerns the target T2, High affinity choline transporter 1. The experiment in a line: CHT inhibitors, dose response, cell-based, 5-point CRC, membrane potential dye (AID 504840). The experiment is classed as functional.
Experiment [7] addresses Protein disulfide-isomerase (Homo sapiens, UniProt P07237). The experiment in a line: PDI inhibitors, insulin aggregation turbidity, dose response, biochemical, absorbance, cherry-picked samples (AID 602350). The experiment is classed as functional.
In experiment [8] the target is Tyrosine-protein kinase receptor TYRO3 (Homo sapiens, UniProt Q06418). The experiment is classed as functional.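 Also: TYRO3 value obtained as one member of a kinome-wide profiling panel.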
Tyrosine-protein kinase receptor TYRO3, sequence (Q06418 whole entry): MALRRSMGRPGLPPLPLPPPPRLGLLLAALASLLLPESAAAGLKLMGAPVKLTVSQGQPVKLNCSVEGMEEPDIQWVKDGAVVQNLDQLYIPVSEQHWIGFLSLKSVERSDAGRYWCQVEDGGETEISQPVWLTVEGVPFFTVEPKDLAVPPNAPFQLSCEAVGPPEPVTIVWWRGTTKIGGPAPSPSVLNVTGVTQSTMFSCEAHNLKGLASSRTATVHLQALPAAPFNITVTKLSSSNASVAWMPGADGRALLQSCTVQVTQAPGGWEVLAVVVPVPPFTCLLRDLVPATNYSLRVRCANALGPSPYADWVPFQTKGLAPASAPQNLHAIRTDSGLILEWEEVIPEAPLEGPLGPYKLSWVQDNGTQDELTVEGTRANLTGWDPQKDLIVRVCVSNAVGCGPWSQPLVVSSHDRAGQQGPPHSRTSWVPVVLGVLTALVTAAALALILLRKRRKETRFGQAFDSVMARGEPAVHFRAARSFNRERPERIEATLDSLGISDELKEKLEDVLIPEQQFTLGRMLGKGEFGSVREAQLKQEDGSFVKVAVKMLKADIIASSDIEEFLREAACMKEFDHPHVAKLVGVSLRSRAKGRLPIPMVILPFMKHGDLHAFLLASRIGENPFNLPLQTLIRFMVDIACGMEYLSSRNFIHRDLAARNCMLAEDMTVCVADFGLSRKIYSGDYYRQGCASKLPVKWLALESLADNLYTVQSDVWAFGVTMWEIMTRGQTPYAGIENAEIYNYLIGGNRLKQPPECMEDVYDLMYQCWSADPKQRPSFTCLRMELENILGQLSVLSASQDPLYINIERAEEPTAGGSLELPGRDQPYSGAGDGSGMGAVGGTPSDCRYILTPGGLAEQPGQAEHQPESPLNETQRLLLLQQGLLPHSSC
In experiment [9] the target is Cyclin-dependent kinase 8 (Homo sapiens, UniProt P49336). The experiment in a line: Navigating the Kinome. Panel member name: CDK8. The experiment is classed as functional.
Cyclin-dependent kinase 8, sequence (P49336 whole entry): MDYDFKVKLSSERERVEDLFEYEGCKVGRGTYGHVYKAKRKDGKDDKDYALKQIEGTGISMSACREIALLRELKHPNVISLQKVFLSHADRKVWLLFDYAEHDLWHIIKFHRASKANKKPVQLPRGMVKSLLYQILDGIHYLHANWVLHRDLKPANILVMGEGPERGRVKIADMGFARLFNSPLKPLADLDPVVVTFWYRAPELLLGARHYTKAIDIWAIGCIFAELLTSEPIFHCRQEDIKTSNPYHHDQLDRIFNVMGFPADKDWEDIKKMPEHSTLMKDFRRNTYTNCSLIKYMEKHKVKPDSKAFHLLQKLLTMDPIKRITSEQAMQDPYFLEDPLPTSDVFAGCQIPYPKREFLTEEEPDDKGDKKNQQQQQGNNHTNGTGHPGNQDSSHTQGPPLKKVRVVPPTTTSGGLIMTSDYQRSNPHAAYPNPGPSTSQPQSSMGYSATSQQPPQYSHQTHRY
The nature of experiment [10]: cytotoxicity in HPDE-C7 cells, cell-based, fluorescence, HTS (AID 430). The experiment is classed as functional. The settings on record: Homo sapiens.
The nature of experiment [11]: inhibitors of SNCA 5'UTR-driven reporter translation, confirmation, H4 neuroglioma cells, luminescence (AID 1988). The experiment is classed as functional, cell-based.
Experiment [12] is described as follows: luciferase reporter signal reduction – luminescence, H4-C neuroglioblastoma cells, dose response (AID 2458).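 Also: H4 neuroglioblastoma cells stably carrying a luciferase reporter gene fusion.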 The experiment is classed as functional, cell-based. Background: Reporter assays use an easily measured gene product as a stand-in for the process of interest.
A short description of experiment [13]: inhibitors of firefly luciferase expression or activity, dose response, H4 neuroglioma cells, luminescence (AID 1990). The experiment is classed as functional, cell-based.
Experiment [14] in a line: inhibitors of SNCA 5'UTR-driven translation, confirmation, luminescence, H4 neuroglioblastoma cells, dose confirmation (AID 2454).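 Also: H4 neuroglioblastoma cells carrying an alpha-synuclein 5'UTR luciferase reporter; potency for inhibition of the luciferase signal.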 The experiment is classed as functional, cell-based.
A short description of experiment [15]: cytotoxicity in KRAS-transformed pancreatic duct cells, primary screen, cell-based, fluorescence, HTS (AID 431).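 Also: cell line used: HPDE-C7K.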 The experiment is classed as functional. The settings on record: Homo sapiens.
A short description of another experiment: cells. The experiment is classed as functional, cell-based.
Experiment [16] deals with T3, RNA-binding protein pos-1 (Caenorhabditis elegans, UniProt G5EF15).
T3 sequence (G5EF15 whole entry): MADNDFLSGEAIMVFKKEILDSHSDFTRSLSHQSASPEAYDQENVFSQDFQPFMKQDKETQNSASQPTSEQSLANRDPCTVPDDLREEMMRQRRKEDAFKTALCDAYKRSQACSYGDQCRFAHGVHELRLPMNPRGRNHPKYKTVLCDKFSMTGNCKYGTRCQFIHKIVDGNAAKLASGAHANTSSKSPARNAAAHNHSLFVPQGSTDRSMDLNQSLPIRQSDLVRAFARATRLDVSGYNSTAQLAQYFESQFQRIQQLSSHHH
Put plainly: inhibitors of POS-1/mex-3 RNA binding, dose response, biochemical, fluorescence polarization (AID 1964).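 Also: purified POS-1 fused to maltose binding protein made in E. coli; potency of compounds blocking POS-1 binding to fluorescent RNA.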

For experiment [17], the target named is T4, Mannose-6-phosphate isomerase (Homo sapiens, UniProt P34949).
T4 sequence (P34949 whole entry): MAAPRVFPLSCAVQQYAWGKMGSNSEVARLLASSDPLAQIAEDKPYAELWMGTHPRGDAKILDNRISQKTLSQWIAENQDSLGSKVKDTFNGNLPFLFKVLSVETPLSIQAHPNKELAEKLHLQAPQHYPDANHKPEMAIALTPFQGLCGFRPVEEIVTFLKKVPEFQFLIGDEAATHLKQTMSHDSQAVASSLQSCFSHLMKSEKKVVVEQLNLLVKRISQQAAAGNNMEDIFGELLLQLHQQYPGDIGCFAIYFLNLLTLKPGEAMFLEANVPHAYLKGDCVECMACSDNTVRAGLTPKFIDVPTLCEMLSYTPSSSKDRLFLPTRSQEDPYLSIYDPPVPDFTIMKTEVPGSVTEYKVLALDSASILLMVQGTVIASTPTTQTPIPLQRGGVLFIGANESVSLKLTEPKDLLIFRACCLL
Put plainly: human PMI inhibitors, high substrate, primary screen, biochemical, fluorescence intensity, high mannose 6-phosphate (AID 1220).

In experiment [18] the target is T5, Zinc finger protein mex-5 (Caenorhabditis elegans, UniProt Q9XUB2).
T5 sequence (Q9XUB2 whole entry): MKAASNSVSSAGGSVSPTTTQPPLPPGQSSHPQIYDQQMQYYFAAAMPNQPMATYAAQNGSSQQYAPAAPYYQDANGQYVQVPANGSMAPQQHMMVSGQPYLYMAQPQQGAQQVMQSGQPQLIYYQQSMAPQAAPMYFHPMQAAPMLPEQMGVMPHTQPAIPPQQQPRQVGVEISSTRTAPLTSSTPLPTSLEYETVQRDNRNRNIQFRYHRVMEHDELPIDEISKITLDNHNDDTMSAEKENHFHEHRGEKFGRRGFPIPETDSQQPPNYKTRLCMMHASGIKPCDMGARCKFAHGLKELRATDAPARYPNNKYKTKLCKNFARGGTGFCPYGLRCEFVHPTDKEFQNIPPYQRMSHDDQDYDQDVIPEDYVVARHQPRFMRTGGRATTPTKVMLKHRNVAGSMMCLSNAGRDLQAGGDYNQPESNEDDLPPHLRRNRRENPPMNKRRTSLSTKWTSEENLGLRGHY
The experiment in a line: MEX-5/TCR-2 RNA interaction inhibitors, dose response, biochemical, C. elegans, fluorescence polarization (AID 1960).

Experiment [19] has as its target T6, RNA-editing ligase 1, mitochondrial (Trypanosoma brucei brucei, UniProt P86926).
T6 sequence (P86926 whole entry): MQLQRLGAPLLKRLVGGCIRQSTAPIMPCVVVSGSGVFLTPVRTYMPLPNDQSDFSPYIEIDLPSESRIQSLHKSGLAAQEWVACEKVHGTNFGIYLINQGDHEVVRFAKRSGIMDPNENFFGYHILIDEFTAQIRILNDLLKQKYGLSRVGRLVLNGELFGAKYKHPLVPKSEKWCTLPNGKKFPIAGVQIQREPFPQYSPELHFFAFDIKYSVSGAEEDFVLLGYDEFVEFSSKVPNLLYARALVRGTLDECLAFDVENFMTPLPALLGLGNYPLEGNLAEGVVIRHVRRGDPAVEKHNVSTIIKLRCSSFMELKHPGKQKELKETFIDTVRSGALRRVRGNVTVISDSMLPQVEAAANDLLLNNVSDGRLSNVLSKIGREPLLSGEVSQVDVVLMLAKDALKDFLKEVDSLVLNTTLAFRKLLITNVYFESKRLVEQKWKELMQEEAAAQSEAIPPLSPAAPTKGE
Put plainly: TbREL1 ligase inhibitors, dose response, biochemical, fluorescence, Trypanosoma brucei (AID 1117295). The experiment is classed as functional.

The structures appear in SMILES notation. The source made the active and inactive calls.

Here are results for 7 compounds from ChEMBL document CHEMBL1201862, “PubChem BioAssay data set” (2004).

Protein disulfide-isomerase, sequence (P07237 whole entry): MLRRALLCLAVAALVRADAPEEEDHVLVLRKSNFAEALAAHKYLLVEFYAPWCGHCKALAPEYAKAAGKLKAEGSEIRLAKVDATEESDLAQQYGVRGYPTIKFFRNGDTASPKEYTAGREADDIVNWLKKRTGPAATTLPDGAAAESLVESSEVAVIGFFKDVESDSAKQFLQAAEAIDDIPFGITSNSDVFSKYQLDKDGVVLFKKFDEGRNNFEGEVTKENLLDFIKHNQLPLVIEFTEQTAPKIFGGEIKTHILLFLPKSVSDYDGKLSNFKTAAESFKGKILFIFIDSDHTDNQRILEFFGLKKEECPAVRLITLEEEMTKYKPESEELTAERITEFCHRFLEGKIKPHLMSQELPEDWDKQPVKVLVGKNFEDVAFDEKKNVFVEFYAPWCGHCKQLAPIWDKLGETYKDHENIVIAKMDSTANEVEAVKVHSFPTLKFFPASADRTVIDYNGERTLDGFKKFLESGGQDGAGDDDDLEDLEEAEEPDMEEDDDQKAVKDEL

With `O=C(CN1C(=O)COc2ccc(S(=O)(=O)N3CCCC3)cc21)NCc1ccccn1`, the EC50 with HEK293 [1], on Insulin-degrading enzyme [3] and at Insulin-degrading enzyme [4] was > 54.7 µM (inactive) throughout. For the same compound, in the experiment with HEK293 [2], the IC50 (usually the concentration that gives 50% inhibition) was > 89.2 µM (inactive).
For the compound `CC(C)(O)C#Cc1ccccc1C(=O)NC(CC(N)=O)C(=O)O` (configuration not stated), the EC50 (commonly the concentration at which the effect is half-maximal) was > 55.9 µM (inactive) in the experiment with HEK293 [1], > 54.7 µM (inactive) at Insulin-degrading enzyme [3] and > 54.7 µM (inactive) at Insulin-degrading enzyme [4]. In addition, in the experiment on HEK293 [2], the IC50 was > 89.2 µM (inactive).
As for `CCCCN(CCCC)CCNC(=O)c1cn(CC)c2ccc(S(=O)(=O)N3CCc4ccccc4C3)cc2c1=O`, the IC50 in [5] was 4.28 µM (active); in [6], 4.07 µM (active).
Turning to `O=C(NC(Cc1ccc(O)cc1)C(=O)N=Nc1c(O)[nH]c2ccccc12)c1ccccc1` (configuration not stated), in [7], the AC50 (in general, the midpoint of the concentration-response curve, whichever way the signal moves) was 19.5 µM (active).
In the case of `NC(=O)CCN1CCN(C2Cc3cc(Cl)ccc3Sc3cc(F)ccc32)CC1` (configuration not stated), the inhibitory constant (Ki) in experiment [8] and in experiment [9] was 1.58 µM (active) each time.
As to `COc1ccc(C2=Nn3c(nnc3-c3ccccc3OC)SC2)cc1OC`, the EC50 is 700 nM (active) in [10]; < 100 nM (active) in experiment [11]; 624 nM (active) in experiment [12]; < 100 nM (active) in experiment [13]; 551 nM (active) in experiment [14]; 300 nM (active) in [15]. Also, the 50% effective concentration (EC50) in “cells” was 494 nM (active). Moreover, the IC50 was 4.22 µM (active) in experiment [5] and 1.15 µM (active) in experiment [6].
With `C[C@@H]1O[C@@H](Oc2c(-c3cc(O)c(O)c(O)c3)oc3cc(O)cc(O)c3c2=O)[C@H](O)[C@H](O)[C@H]1O`, the EC50 was 15.8 µM (active) in experiment [16] and 14 µM (active) in experiment [18]. Further, the IC50 in [17] was 31 µM (active); in experiment [19], 51.4 µM (inactive). The AC50 in experiment [7] was 9.8 µM (active).
